In ChEMBL document CHEMBL3526000 (Drug Metab Dispos, 2012):

How the values were obtained:
[1] = biological target: T1, UDP-glucuronosyltransferase 1A1 (Homo sapiens, UniProt P22309); experiment: Drug metabolism assessed as recombinant human UGT1A1 assessed as O-glucuronidation at 100 uM incubated for 60 mins by LC-MS/MS analysis; format: ADME; conditions: recombinant enzyme, 1 h
T1 sequence (P22309 whole entry): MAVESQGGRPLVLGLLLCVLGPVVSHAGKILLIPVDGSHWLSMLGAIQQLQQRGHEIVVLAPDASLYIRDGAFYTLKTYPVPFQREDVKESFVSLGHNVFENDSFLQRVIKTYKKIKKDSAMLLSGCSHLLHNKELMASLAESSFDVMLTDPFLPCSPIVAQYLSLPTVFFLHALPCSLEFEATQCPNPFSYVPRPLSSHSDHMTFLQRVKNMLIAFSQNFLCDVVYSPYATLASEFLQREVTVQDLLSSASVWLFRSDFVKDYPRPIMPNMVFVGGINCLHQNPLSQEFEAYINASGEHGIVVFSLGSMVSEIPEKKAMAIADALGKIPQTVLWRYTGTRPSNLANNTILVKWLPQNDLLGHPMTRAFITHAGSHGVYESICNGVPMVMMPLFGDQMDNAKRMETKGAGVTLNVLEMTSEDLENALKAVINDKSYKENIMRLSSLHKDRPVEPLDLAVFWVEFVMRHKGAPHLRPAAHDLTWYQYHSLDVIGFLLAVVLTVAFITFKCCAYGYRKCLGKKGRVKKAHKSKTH

[2] = biological target: T2, UDP-glucuronosyltransferase 1A7 (Homo sapiens, UniProt Q9HAW7); experiment: Drug metabolism assessed as recombinant human UGT1A7 assessed as O-glucuronidation at 100 uM incubated for 60 mins by LC-MS/MS analysis; format: ADME; conditions: recombinant enzyme, 1 h
T2 sequence (Q9HAW7 whole entry): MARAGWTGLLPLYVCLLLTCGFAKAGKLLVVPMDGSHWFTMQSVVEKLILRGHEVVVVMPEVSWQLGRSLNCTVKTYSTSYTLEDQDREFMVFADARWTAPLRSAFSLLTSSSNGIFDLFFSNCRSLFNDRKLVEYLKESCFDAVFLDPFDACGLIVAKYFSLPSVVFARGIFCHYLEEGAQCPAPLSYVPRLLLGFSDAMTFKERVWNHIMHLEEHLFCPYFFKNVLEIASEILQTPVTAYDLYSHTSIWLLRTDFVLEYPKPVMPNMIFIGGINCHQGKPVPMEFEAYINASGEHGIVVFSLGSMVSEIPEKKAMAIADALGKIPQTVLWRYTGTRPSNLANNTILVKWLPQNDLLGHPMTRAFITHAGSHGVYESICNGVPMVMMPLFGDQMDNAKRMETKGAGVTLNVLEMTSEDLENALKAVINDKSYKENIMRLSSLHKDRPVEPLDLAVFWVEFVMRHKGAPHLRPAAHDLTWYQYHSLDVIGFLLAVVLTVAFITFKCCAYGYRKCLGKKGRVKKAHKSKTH

[3] = biological target: T1, UDP-glucuronosyltransferase 1A1; experiment: Drug metabolism assessed as recombinant human UGT1A1 assessed as N-glucuronidation at 100 uM incubated for 60 mins by LC-MS/MS analysis; format: ADME; conditions: recombinant enzyme, 1 h
[4] = biological target: T3, UDP-glucuronosyltransferase 1A3 (Homo sapiens, UniProt P35503); experiment: Drug metabolism assessed as recombinant human UGT1A3 assessed as N-glucuronidation at 100 uM incubated for 60 mins by LC-MS/MS analysis; format: ADME; conditions: recombinant enzyme, 1 h
T3 sequence (P35503 whole entry): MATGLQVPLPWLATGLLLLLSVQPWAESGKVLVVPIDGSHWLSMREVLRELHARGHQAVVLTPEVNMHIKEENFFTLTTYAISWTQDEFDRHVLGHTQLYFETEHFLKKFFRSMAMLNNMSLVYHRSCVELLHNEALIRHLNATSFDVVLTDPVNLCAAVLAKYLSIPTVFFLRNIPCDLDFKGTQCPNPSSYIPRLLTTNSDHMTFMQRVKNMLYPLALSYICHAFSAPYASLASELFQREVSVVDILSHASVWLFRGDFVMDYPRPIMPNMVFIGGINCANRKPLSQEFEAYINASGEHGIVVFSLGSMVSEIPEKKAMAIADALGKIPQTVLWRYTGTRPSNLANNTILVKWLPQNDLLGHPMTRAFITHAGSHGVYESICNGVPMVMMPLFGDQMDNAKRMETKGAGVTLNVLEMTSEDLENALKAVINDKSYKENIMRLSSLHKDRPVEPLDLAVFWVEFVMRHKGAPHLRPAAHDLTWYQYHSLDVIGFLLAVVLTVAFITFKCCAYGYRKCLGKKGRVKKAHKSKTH

[5] = biological target: T2, UDP-glucuronosyltransferase 1A7; experiment: Drug metabolism assessed as recombinant human UGT1A7 assessed as N-glucuronidation at 100 uM incubated for 60 mins by LC-MS/MS analysis; format: ADME; conditions: recombinant enzyme, 1 h
[6] = biological target: T4, UGT1A9 (Homo sapiens, UniProt O60656); experiment: Drug metabolism assessed as recombinant human UGT1A9 assessed as O-glucuronidation at 10 to 400 uM incubated for 60 mins by LC-MS/MS analysis
T4 sequence (O60656 whole entry): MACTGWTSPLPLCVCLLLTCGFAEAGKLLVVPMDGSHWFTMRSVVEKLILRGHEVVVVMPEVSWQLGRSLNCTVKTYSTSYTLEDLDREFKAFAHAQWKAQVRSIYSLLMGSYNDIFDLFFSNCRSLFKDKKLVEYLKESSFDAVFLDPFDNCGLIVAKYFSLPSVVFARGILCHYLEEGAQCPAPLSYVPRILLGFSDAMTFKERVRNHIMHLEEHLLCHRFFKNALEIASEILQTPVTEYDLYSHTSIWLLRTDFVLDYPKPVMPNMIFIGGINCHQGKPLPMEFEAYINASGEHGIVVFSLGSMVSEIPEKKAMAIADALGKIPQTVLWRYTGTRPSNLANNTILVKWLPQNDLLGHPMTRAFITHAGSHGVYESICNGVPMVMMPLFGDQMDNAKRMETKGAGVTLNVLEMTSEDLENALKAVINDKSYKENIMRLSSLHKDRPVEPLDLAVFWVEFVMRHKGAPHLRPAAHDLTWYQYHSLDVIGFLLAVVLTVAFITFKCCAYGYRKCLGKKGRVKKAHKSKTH

With `O=C(CCCN1CCC(O)(c2ccc(Cl)cc2)CC1)c1ccc(F)cc1` [HALOPERIDOL] the Drug metabolism [1] was “metabolite_not_detected”, the Drug metabolism [2] was “metabolite_not_detected” and the Drug metabolism [3] was “metabolite_not_detected”. For the same compound, the Drug metabolism [4] was “metabolite_not_detected”, the Drug metabolism [5] was “metabolite_not_detected” and the Km at 1 h, 400 µM [6] was 174 µM.
